Experimental data as given in patent publication US20050112573A1, “Method of detecting toxic substance” (priority 2001, published 2005).

System: yeast genes (level of expressed mRNA)
Experiment: DNA chip analysis of expressed mRNA of yeast genes after 2 h culture with a toxic chemical substance
Assay type: cell-based, Saccharomyces cerevisiae S288C
Settings: for The level of expressed mRNA in the presence of chemical substance/ (ratio to absence of chemical substance): stress protein genes, DNA chip
Description: Yeast (Saccharomyces cerevtisiae S288C (α SUC2mal mel gap2 CUP1)) were cultured at 25° C. on YPD medium (yeast extract 1%, polypepton 2%, glucose 2%). One of toxic chemical substances was added to the cell at logarithmic growth phase, and the cell was further cultured for two hours. Cell was cultured without any chemical substance in the same condition, and was used as control. Concentrations of the chemical substances were defined to inhibit the growth of the yeast but not lead to death.
After the completion of cultivation, the culture was centrifuged to collect the cells. To the cells, sodium acetate buffer (50 mM sodium acetate, 10 mM EDTA, 1% SDS) was added, and the mixture was shaken at 65° C. for five minutes, followed by returning to room temperature, and obtaining the supernatant, which procedure was repeated two times. To the supernatant, ½ amount of a solution of phenol/chloroform was added, and the mixture was centrifuged to give a supernatant, which was added with an equal amount of chloroform, and the mixture was centrifuged to give a supernatant. To the supernatant, an equal amount of isopropanol containing 0.3 M sodium acetate was added, and the mixture was allowed to stand at room temperature for 30 minutes, after which the mixture was centrifuged to give a sediment of the whole RNAs. Seventy % ethanol was added to the sediment, and the mixture was again centrifuged to give a sediment, which was then dried and dissolved in water. mRNA was isolated from the whole RNAs as followings. In view of the fact that a poly A chain is attached to the 3′ terminus of mRNA, a polynucleotide having a poly T structure which was immobilized on the surface of latex beads was used to trap the mRNA, and then the mRNA was washed and eluted with spine column (Oligotex-dT30<Super>mRNA Purification Kit, Takara). Reverse transcription of the mRNA was conducted with a reverse transcriptase (Super Script II Reverse Transcriptase; catalogue No. 18064-014, GibcoBRL) using fluorescence-labeled nucleotides to give cDNAs that were introduced with Cy3-dUTP or Cy5-dUTP during the reverse transcription.
The labeled cDNAs were dissolved in TE buffer (10 mM Tris-HCl/1 mM EDTA, pH8.0), and the solution was dropped on the DNA chip containing the whole genes of yeast (DNA Chip Research Inc. Japan) so that the cDNAs were hybridized on the DNA chip at 65° C. for over 12 hours. The fluoresces intensity of the DNA chip was read with a scanner, and the ratio relative to the fluorescence intensity resulting from the absence of chemical substance was estimated as the following, which is shown in Tables 1 to 9: [formula]
In the Tables, “Intensity” indicated in the rightmost column is a value of the level of expressed mRNA of each gene in control cells as divided by the average level of the expressions of the whole genes.

## COc1cc(CNC(=O)CCCCC=CC(C)C)ccc1O [(12), 8-methyl-N-vanillyl-6-nonenamide]
Yeast gene YIL123W
  The level of expressed mRNA in the presence of chemical substance/The level of expressed mRNA in the absence of chemical substance: 0.8
Yeast gene YIL140W
  The level of expressed mRNA in the presence of chemical substance/The level of expressed mRNA in the absence of chemical substance: 1.0
Yeast gene YJL052W, two hours culture
  The level of expressed mRNA in the presence of chemical substance/The level of expressed mRNA in the absence of chemical substance: 2.4
Yeast gene YJL070C, ratio of DNA chip fluorescence intensity to that without chemical substance
  The level of expressed mRNA in the presence of chemical substance/ (in its absence), gene YJL070C: 1.0
Yeast gene YJL073W
  The level of expressed mRNA in the presence of chemical substance/The level of expressed mRNA in the absence of chemical substance: 1.0
Yeast gene YJL089W
  The level of expressed mRNA in the presence of chemical substance/The level of expressed mRNA in the absence of chemical substance: 1.2
Yeast gene YJL096W, mitochondria-located protein genes, 2 h culture with chemical
  The level of expressed mRNA in the presence of chemical substance/ (ratio to absence), gene YJL096W: 1.0
Yeast gene YJL116C
  The level of expressed mRNA in the presence of chemical substance/The level of expressed mRNA in the absence of chemical substance: 1.1
Yeast gene YJL158C
  The level of expressed mRNA in the presence of chemical substance/ (ratio to absence of chemical substance): 1.1
Yeast gene YJL167W, ratio of DNA chip fluorescence intensity to that without chemical substance
  The level of expressed mRNA in the presence of chemical substance/ (in its absence), gene YJL167W: 1.3
Yeast gene YJL180C, mitochondria-located protein genes, 2 h culture with chemical
  The level of expressed mRNA in the presence of chemical substance/ (ratio to absence), gene YJL180C: 0.8
Yeast gene YJL216C, ratio of DNA chip fluorescence intensity to that without chemical substance
  The level of expressed mRNA in the presence of chemical substance/ (in its absence), gene YJL216C: 1.0
Yeast gene YJR004C
  The level of expressed mRNA in the presence of chemical substance/The level of expressed mRNA in the absence of chemical substance: 0.8
Yeast gene YJR086W
  The level of expressed mRNA in the presence of chemical substance/The level of expressed mRNA in the absence of chemical substance: 0.8
Yeast gene YJR090C
  The level of expressed mRNA in the presence of chemical substance/ (ratio to absence of chemical substance): 0.8
Yeast gene YKL008C
  The level of expressed mRNA in the presence of chemical substance/The level of expressed mRNA in the absence of chemical substance: 1.5
Yeast gene YKL013C
  The level of expressed mRNA in the presence of chemical substance/The level of expressed mRNA in the absence of chemical substance: 0.7
Yeast gene YKL039W
  The level of expressed mRNA in the presence of chemical substance/The level of expressed mRNA in the absence of chemical substance: 0.9
Yeast gene YKL041W
  The level of expressed mRNA in the presence of chemical substance/The level of expressed mRNA in the absence of chemical substance: 0.8
Yeast gene YKL096W
  The level of expressed mRNA in the presence of chemical substance/The level of expressed mRNA in the absence of chemical substance: 0.3
Yeast gene YKL164C
  The level of expressed mRNA in the presence of chemical substance/ (ratio to absence of chemical substance): 0.8
Yeast gene YKL165C
  The level of expressed mRNA in the presence of chemical substance/The level of expressed mRNA in the absence of chemical substance: 2.4
Yeast gene YKL193C
  The level of expressed mRNA in the presence of chemical substance/The level of expressed mRNA in the absence of chemical substance: 0.9
Yeast gene YKR009C, ratio of DNA chip fluorescence intensity to that without chemical substance
  The level of expressed mRNA in the presence of chemical substance/ (in its absence), gene YKR009C: 1.0
Yeast gene YKR034W, ratio of DNA chip fluorescence intensity to that without chemical substance
  The level of expressed mRNA in the presence of chemical substance/ (in its absence), gene YKR034W: 0.7
Yeast gene YKR053C
  The level of expressed mRNA in the presence of chemical substance/ (ratio to absence of chemical substance): 0.7
Yeast gene YKR058W, energy system protein genes, 2 h culture with the chemical, ratio to control without chemical
  The level of expressed mRNA in the presence of chemical substance/ in its absence, gene YKR058W: 0.9
Yeast gene YLR006C, ratio of DNA chip fluorescence intensity to that without chemical substance
  The level of expressed mRNA in the presence of chemical substance/ (in its absence), gene YLR006C: 0.7
Yeast gene YLR006C
  The level of expressed mRNA in the presence of chemical substance/ (ratio to absence of chemical substance): 0.7
Yeast gene YLR120C
  The level of expressed mRNA in the presence of chemical substance/The level of expressed mRNA in the absence of chemical substance: 1.6
Yeast gene YLR136C
  The level of expressed mRNA in the presence of chemical substance/The level of expressed mRNA in the absence of chemical substance: 1.3
Yeast gene YLR178C
  The level of expressed mRNA in the presence of chemical substance/The level of expressed mRNA in the absence of chemical substance: 2.2
Yeast gene YLR250W
  The level of expressed mRNA in the presence of chemical substance/The level of expressed mRNA in the absence of chemical substance: 1.0
Yeast gene YLR295C, energy system protein genes, 2 h culture with the chemical, ratio to control without chemical
  The level of expressed mRNA in the presence of chemical substance/ in its absence, gene YLR295C: 0.5
Yeast gene YLR295C, mitochondria-located protein genes, 2 h culture with chemical
  The level of expressed mRNA in the presence of chemical substance/ (ratio to absence), gene YLR295C: 0.5
Yeast gene YLR327C
  The level of expressed mRNA in the presence of chemical substance/The level of expressed mRNA in the absence of chemical substance: 1.4
Yeast gene YLR351C, ratio of DNA chip fluorescence intensity to that without chemical substance
  The level of expressed mRNA in the presence of chemical substance/ (in its absence), gene YLR351C: 0.9
Yeast gene YLR356W
  The level of expressed mRNA in the presence of chemical substance/The level of expressed mRNA in the absence of chemical substance: 1.5
Yeast gene YLR362W
  The level of expressed mRNA in the presence of chemical substance/The level of expressed mRNA in the absence of chemical substance: 0.8
Yeast gene YLR375W, ratio of DNA chip fluorescence intensity to that without chemical substance
  The level of expressed mRNA in the presence of chemical substance/ (in its absence), gene YLR375W: 0.9
Yeast gene YLR391W
  The level of expressed mRNA in the presence of chemical substance/The level of expressed mRNA in the absence of chemical substance: 1.0
Yeast gene YLR429W
  The level of expressed mRNA in the presence of chemical substance/The level of expressed mRNA in the absence of chemical substance: 1.1
Yeast gene YML129C, energy system protein genes, 2 h culture with the chemical, ratio to control without chemical
  The level of expressed mRNA in the presence of chemical substance/ in its absence, gene YML129C: 0.8
Yeast gene YML129C, mitochondria-located protein genes, 2 h culture with chemical
  The level of expressed mRNA in the presence of chemical substance/ (ratio to absence), gene YML129C: 0.8
Yeast gene YMR004W
  The level of expressed mRNA in the presence of chemical substance/The level of expressed mRNA in the absence of chemical substance: 1.0
Yeast gene YMR023C, mitochondria-located protein genes, 2 h culture with chemical
  The level of expressed mRNA in the presence of chemical substance/ (ratio to absence), gene YMR023C: 0.7
Yeast gene YMR094W
  The level of expressed mRNA in the presence of chemical substance/The level of expressed mRNA in the absence of chemical substance: 0.9
Yeast gene YMR104C
  The level of expressed mRNA in the presence of chemical substance/The level of expressed mRNA in the absence of chemical substance: 1.0
Yeast gene YMR186W
  The level of expressed mRNA in the presence of chemical substance/ (ratio to absence of chemical substance): 1.0
Yeast gene YMR219W
  The level of expressed mRNA in the presence of chemical substance/The level of expressed mRNA in the absence of chemical substance: 1.5
Yeast gene YMR226C
  The level of expressed mRNA in the presence of chemical substance/The level of expressed mRNA in the absence of chemical substance: 1.1
Yeast gene YMR267W, energy system protein genes, 2 h culture with the chemical, ratio to control without chemical
  The level of expressed mRNA in the presence of chemical substance/ in its absence, gene YMR267W: 0.8
Yeast gene YMR267W, mitochondria-located protein genes, 2 h culture with chemical
  The level of expressed mRNA in the presence of chemical substance/ (ratio to absence), gene YMR267W: 0.8
Yeast gene YMR267W, ratio of DNA chip fluorescence intensity to that without chemical substance
  The level of expressed mRNA in the presence of chemical substance/ in its absence, gene YMR267W: 0.8
Yeast gene YMR275C
  The level of expressed mRNA in the presence of chemical substance/The level of expressed mRNA in the absence of chemical substance: 0.7
Yeast gene YMR276W
  The level of expressed mRNA in the presence of chemical substance/The level of expressed mRNA in the absence of chemical substance: 1.2
Yeast gene YMR278W, ratio of DNA chip fluorescence intensity to that without chemical substance
  The level of expressed mRNA in the presence of chemical substance/ (in its absence), gene YMR278W: 1.0
Yeast gene YMR293C, ratio of DNA chip fluorescence intensity to that without chemical substance
  The level of expressed mRNA in the presence of chemical substance/ (in its absence), gene YMR293C: 0.9
